Test results reported in patent publication US20250136991A1, “METHOD OF MAKING BONE AND CARTILAGE” (priority 2022, published 2025).
Peptide text beside a SMILES is read from it. * marks the point of attachment. Cbz = O=C(OCc1ccccc1)*

Columns and labels:
Mast4-PDZ P628A/Y634A = Mast4-PDZ P628A/Y634A (UniProt O15021)
Mast4 [1] = test: Mast4 expression by western blot and RT-PCR in C3H10T1/2 cells treated with TGF-β1; format: cell-based, murine; details: TGF-β1 for 48 h (FIG. 3c)
Experimental: FIGS. 3a-3g show TGF-β1-induced suppression of Mast4 enhances chondrogenesis by increasing Sox9-Smad3 association. a Sox9 and Smad3 were co-transfected to wild-type and Mast4-depleted C3H10T1/2 cells, followed by TGF-β1 treatment (5 ng/ml for 30 minutes). Sox9 was immunoprecipitated using HA antibody. Band intensities representing GFP-Smad3 and HA-Sox9 expression level in the immunoprecipitates were converted by densitometry using ImageJ software into the ratio of Smad3 to Sox9. Data are reported as mean±SD of three independent experiments (n=3). […]
Total RNA was prepared using EasyBlue (Boca Scientific). […] Quantitative real-time PCR was performed using Power SYBR Green PCR Master Mix (Applied Biosystems) on the QuantStudio 5 Real-Time PCR Instrument (Applied Biosystems). The mRNA levels of various genes were measured in triplicate and normalized with Gapdh. […]
(§1) For the immunoprecipitation assay, cell extracts were incubated with the indicated primary antibodies overnight at 4° C. […] All signals were detected by Amersham Imager 600 (GE Healthcare Life Sciences).

Mast4 promoter [2] = test: Smad3 ChIP assay on Mast4 gene in differentiating C3H10T1/2 cells; format: cell-based, murine; details: 6 days chondrogenic differentiation, TGF-β1 5 ng/ml for 48 h (FIG. 3e, FIG. 20)
Experimental: (§2) FIGS. 3a-3g show TGF-β1-induced suppression of Mast4 enhances chondrogenesis by increasing Sox9-Smad3 association. a Sox9 and Smad3 were co-transfected to wild-type and Mast4-depleted C3H10T1/2 cells, followed by TGF-β1 treatment (5 ng/ml for 30 minutes). Sox9 was immunoprecipitated using HA antibody. Band intensities representing GFP-Smad3 and HA-Sox9 expression level in the immunoprecipitates were converted by densitometry using ImageJ software into the ratio of Smad3 to Sox9. Data are reported as mean±SD of three independent experiments (n=3). Unpaired two-tailed Student's t test (P<0.05) was conducted for statistical analysis. b Smad3 ChIP on Col2a1 gene assay was performed in differentiating C3H10T1/2 cells for 6 days. c Mast4 expression was examined by western blot and RT-PCR of C3H10T1/2 cells treated with TGF-β1 for 48 h. d Luciferase assay was conducted in undifferentiated C3H10T1/2 cells. Vactosertib (0.5 μM) was pre-treated for 2 h prior to TGF-β1 (5 ng/ml) treatment for 24 h. e Smad3 ChIP assay on Mast4 gene was conducted in C3H10T1/2 cells undergoing chondrogenic differentiation for 6 days. […]

Mast4 [3] = test: Mast4 expression in human primary chondrocytes treated with TGF-β1; format: cell-based; details: TGF-β1 5 ng/ml for 24 h and 48 h (FIG. 3g)
Experimental: as §2

Mast4 promoter [4] = test: Mast4 promoter luciferase assay in undifferentiated C3H10T1/2 cells; format: cell-based, murine; details: TGF-β1 5 ng/ml for 24 h (FIG. 3d)
Experimental: as §2, with “cells.” for “cells. Vactosertib (0.5 μM) was pre-treated for 2 h prior to TGF-β1 (5 ng/ml) treatment for 24 h. e Smad3 ChIP assay on Mast4 gene was conducted in C3H10T1/2 cells undergoing chondrogenic differentiation for 6 days.”
C3H10T1/2 cells were transiently transfected with 4xCol2a1-luc, Smad3/4-responsive promoter (CAGA)12-luc, SBE-luc, 6xOSE-luc, MAST4-promoter luciferase report plasmids, HA-MAST4 PDZ, Myc-Sox9 WT/S494A/S494D plasmids using polyethylenimine (Polysciences). […] The luciferase activities were analyzed using the Luciferase Assay System kit (Promega) according to the manufacturer's protocol. […]

Mast4 [5] = test: Mast4-PDZ expression in C3H10T1/2 cells transfected with Mast4-PDZ and GSK-3β, CHIR-99021 treatment (western blot); format: cell-based, murine; details: CHIR-99021 10 μM for 9 h (FIG. 4d)
Experimental: Cell lysates were immunoprecipitated with Flag antibody and immunoblotted with the indicated antibodies. k MC3T3-E1 cells were transfected with Mast4-PDZ WT and Δ632-636, followed by treatment of Wnt3a conditioned medium (2.5 h). l 6xOSE-Luc, Mast4-PDZ WT and Δ632-636 were transfected to C3H10T1/2 cells, followed by treatment of Wnt3a conditioned medium (18 h). […] Unpaired two-tailed Student's t test (P<0.05) with Benjamini-Hochberg correction for multiple tests was conducted for all statistical analyses. b-k The representative results were obtained from at least three independent experiments. TCL: total cell lysates.
For the immunoprecipitation assay, cell extracts were incubated with the indicated primary antibodies overnight at 4° C. Antibody-bound proteins were precipitated with Dynabeads Protein G (Invitrogen). Cells were lysed in a RIPA buffer containing protease inhibitor cocktail (Complete; Roche). Samples were separated by SDS-PAGE, followed by electrotransfer to polyvinylidene difluoride membranes (PVDF; Millipore). The membrane was blocked for 1 h at room temperature and incubated overnight at 4° C. with the primary antibodies. Horseradish peroxidase-conjugated antibodies (Millipore) were used as secondary antibodies. The peroxidase reaction products were visualized with WESTZOL (Intron). All signals were detected by Amersham Imager 600 (GE Healthcare Life Sciences).

Mast4 [6] = test: Mast4 degradation (cycloheximide chase) in Mast4-PDZ-overexpressing C3H10T1/2 cells with CHIR-99021; format: cell-based, murine; set-up: dose or concentration left out as unconfirmed; details: (FIG. 22d)
Excerpt: FIGS. 22a-22e show Mast4 induction during osteogenesis and GSK-3b regulation of Mast4 expression. (a) The schematic representation of osteogenic differentiation of C3H10T1/2 cells. (b) The indicated C3H10T1/2 cells were differentiated into osteoblasts for 10 days, followed by Alizarin Red S staining. (c) C3H10T1/2 cells were differentiated into osteoblasts for 10 days, followed by western blot analysis for the expression of Mast4 and key Wnt signaling molecules. (d) Mast4-PDZ-overexpressing C3H10T1/2 cells were treated with cycloheximide (CHX; […]) for the indicated time in the absence or presence of CHIR-99021 ([…]). (e) The wild-type and GSK-3b-depleted HA-Mast4-PDZ-overexpressing C3H10T1/2 cells were treated with MG-132 ([…] for 4 h) and CHIR-99021 ([…]). (b-d) The representative result were obtained from at least three separate experiments.
For the immunoprecipitation assay, cell extracts were incubated with the indicated primary antibodies overnight at 4° C. Antibody-bound proteins were precipitated with Dynabeads Protein G (Invitrogen). Cells were lysed in a RIPA buffer containing protease inhibitor cocktail (Complete; Roche). Samples were separated by SDS-PAGE, followed by electrotransfer to polyvinylidene difluoride membranes (PVDF; Millipore). […] All signals were detected by Amersham Imager 600 (GE Healthcare Life Sciences).

Sox9 = test: Mast4-induced Sox9 degradation in C3H10T1/2 cells with MG-132 treatment (western blot); format: cell-based, murine; details: C3H10T1/2 cells transfected with Myc-Sox9 and Mast4-PDZ, MG-132 10 mM for 6 h (FIG. 16e)
Experimental: (a) The indicated C3H10T1/2 cells were differentiated into chondrocytes for 6 days, followed by Sox9 ChIP on the Col2a1 gene. (b) 4xCol2a1-luc was transiently overexpressed in LPCX control and Mast4 PDZ-overexpressing C3H10T1/2 cells, followed by TGF-b1 treatment (3 ng/ml for 24 h). (a and b) Data are representative mean±SD of three independent experiments, each conducted in triplicate (n=3). Unpaired two-tailed Student's t test (P<0.05) with Benjamini-Hochberg correction for multiple tests was conducted for all statistical analyses. P values versus WT. (c) Full-length (HA-Mast4-FULL) and truncated Mast4 (HA-Mast4-PDZ) together with siMAST4 (50 pmol) that targets exogenous Mast4 (human) were co-transfected with Myc-Sox9 into C3H10T1/2 cells. Due to inefficient detection of full length Mast4 with HA antibody, Mast4 antibody which recognizes the C-terminus was used. (d) The indicated C3H10T1/2 cells were differentiated to chondrocytes for 6 days, followed by MG-132 ([…] for 6 h) treatment. Endogenous Sox9 was immunoprecipitated, and the complexes were analyzed by western blot using phospho-serine and Sox9 antibodies. […]
as §1

Sequence of Mast4-PDZ P628A/Y634A (O15021 whole entry P628A/Y634A, looked up): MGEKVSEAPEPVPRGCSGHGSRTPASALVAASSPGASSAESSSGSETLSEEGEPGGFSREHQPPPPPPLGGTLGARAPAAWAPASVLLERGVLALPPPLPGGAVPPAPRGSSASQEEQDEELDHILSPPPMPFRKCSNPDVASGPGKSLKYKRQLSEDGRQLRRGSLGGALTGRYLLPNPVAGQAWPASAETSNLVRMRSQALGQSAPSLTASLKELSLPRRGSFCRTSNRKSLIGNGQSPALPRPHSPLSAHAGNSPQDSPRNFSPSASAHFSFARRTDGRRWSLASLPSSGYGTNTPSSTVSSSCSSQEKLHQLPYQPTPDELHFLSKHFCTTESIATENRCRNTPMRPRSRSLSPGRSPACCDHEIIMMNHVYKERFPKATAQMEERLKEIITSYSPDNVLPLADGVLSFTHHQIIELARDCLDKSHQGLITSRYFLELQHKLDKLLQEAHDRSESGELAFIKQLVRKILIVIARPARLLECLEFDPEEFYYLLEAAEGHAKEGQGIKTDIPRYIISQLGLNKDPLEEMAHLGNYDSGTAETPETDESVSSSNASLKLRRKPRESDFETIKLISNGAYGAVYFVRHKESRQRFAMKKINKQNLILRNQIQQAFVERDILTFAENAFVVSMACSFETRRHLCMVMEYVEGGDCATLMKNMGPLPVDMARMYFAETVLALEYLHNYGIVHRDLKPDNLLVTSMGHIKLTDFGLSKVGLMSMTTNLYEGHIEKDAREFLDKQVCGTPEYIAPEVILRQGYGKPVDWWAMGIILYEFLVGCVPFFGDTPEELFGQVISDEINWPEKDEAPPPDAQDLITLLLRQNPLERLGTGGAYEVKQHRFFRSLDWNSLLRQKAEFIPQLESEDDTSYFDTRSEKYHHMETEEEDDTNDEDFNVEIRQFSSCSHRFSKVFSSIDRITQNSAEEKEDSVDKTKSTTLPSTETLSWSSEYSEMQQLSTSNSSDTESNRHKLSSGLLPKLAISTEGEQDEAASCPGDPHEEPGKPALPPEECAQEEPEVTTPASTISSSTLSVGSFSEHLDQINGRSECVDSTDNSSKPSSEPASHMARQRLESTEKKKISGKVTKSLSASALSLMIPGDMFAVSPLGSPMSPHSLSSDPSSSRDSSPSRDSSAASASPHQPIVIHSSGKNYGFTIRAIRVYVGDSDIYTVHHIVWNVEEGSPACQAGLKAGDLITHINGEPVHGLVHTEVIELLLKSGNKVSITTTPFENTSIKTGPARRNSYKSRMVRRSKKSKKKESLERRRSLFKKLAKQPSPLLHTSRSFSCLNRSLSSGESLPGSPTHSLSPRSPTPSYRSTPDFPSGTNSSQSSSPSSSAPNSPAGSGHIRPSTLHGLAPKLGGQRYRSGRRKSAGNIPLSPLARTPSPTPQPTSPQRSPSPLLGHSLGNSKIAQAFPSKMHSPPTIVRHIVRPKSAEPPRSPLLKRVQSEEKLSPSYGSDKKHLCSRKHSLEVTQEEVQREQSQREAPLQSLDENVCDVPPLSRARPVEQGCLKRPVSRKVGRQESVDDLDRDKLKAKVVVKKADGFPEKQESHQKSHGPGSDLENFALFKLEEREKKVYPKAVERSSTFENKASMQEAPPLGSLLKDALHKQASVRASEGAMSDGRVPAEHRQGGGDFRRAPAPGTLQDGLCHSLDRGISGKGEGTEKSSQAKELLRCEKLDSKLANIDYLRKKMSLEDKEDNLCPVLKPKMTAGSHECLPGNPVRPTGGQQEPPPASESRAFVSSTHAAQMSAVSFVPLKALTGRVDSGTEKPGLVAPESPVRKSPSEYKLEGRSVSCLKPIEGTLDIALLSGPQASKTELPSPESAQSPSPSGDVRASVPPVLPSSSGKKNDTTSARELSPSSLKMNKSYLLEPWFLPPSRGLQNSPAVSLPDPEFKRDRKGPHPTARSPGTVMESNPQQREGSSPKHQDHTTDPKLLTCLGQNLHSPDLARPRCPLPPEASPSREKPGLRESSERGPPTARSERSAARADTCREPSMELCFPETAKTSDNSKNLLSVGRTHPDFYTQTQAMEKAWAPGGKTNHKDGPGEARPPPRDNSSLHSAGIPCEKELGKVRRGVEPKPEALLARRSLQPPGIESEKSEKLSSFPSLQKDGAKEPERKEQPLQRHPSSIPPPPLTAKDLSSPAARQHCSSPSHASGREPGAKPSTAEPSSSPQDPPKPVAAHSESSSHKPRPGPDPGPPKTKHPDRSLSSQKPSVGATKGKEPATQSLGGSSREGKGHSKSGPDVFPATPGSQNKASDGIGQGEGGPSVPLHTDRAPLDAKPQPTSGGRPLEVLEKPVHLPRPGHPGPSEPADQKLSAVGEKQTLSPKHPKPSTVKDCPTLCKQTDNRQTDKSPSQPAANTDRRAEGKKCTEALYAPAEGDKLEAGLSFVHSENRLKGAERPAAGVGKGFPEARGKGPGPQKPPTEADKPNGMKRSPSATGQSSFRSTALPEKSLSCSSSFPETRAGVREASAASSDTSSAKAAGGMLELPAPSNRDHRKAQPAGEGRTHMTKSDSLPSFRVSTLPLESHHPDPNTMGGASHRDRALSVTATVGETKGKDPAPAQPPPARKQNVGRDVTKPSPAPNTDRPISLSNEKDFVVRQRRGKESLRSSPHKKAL

## Smurf1
Mast4-PDZ P628A/Y634A
  Smurf1-mediated Mast4 degradation: mutation of PY-like motif in the kinase domain of Mast4 (P628A/Y634A) prevented Smurf1-mediated Mast4 degradation

## TGF-β1: TGF-β1 protein (R&D Systems) used to treat cells
Mast4 [1]
  mRNA and protein expression of Mast4: markedly suppressed
Mast4 promoter [2]
  Smad3 occupancy at the Mast4 promoter: significantly increased
Mast4 [3]
  Mast4 mRNA expression level: gradual reduction
Mast4 promoter [4]
  Mast4 promoter activity: suppressed

## Cc1c[nH]c(-c2cnc(NCCNc3ccc(C#N)cn3)nc2-c2ccc(Cl)cc2Cl)n1 [GSK-3β inhibitor, CHIR-99021]
Mast4 [5]
  Mast4 expression: dramatically increased
Mast4 [6]
  Mast4 degradation: significantly delayed

## CC(C)C[C@@H](C=O)NC(=O)[C@H](CC(C)C)NC(=O)[C@H](CC(C)C)NC(=O)OCc1ccccc1 [MG-132] (Cbz-Leu-Leu-Leu-aldehyde)
Sox9
  Mast4-induced Sox9 degradation: restored
